Experimental data published in patent US12024508B2 (priority 2018, dated 2024).

Key:
[1] = tested on: Shiga toxin (Stx-1 and/or Stx-2); type: cell-based, E. coli
[2] = tested on: VACV-ANCHOR; assay: microbe, parasite or virus in culture; type: cell-based, Vaccinia virus; conditions: for Selectivity index: HeLa/VacV, CC50/CI50; for IC50: Orthopoxvirus vaccinia, HeLa, 48 h, read-out: CI50
[3] = tested on: Myxomavirus T1-ANCHOR; assay: Antiviral activity, RK13 cells with Myxomavirus T1-ANCHOR; type: cell-based; conditions: for IC50: RK-13, 144 h, RK13/MyxV T1, MOI 0.05, fixation at 6 days, read-out: CI50 (the source's name); for Selectivity index: RK13/MyxV T1, CC50/CI50
[4] = tested on: hCMV-ANCHOR; assay: Antiviral activity, MRC5 cells with hCMV-ANCHOR; type: cell-based; conditions: for Selectivity index: CC50/CI50; for IC50: Human betaherpesvirus 5, 144 h, MOI 1, fixation at 6 days, read-out: CI50 (the source's name)
[5] = tested on: RSV; assay: Antiviral activity, Hep2 cells with RSV; type: cell-based; conditions: for Selectivity index: CC50/CI50; for IC50: human respiratory syncytial virus, HEp-2, MOI 0.2, fixation at 72 hours, read-out: CI50 (the source's name)
[6] = Toxicity (cell number) in HeLa cells; conditions: human
[7] = Toxicity (cell number) in MRC5 cells; conditions: human
[8] = Toxicity (cell number) in Hep2 cells; conditions: human
[9] = Toxicity (cell number) in RK13 cells; conditions: rabbit

Row | SMILES | IC50 [1] | Selectivity index [2] | IC50 [2] | IC50 [3] | Selectivity index [4] | IC50 [4] | Selectivity index [5] | IC50 [5] | CC50 at 72 h [6] | CC50 at 72 h [7] | CC50 at 72 h [8] | Selectivity index [3] | CC50 at 72 h [9]
1 | Cc1nc(-c2ccc(C3N(C)c4ccccc4C(=O)N3c3ccccc3N)s2)cs1 (stereo not shown) [Compound 4] | 0.0786 µM | – | – | – | – | – | – | – | – | – | – | – | –
2 | Cc1nc(-c2ccc(C3N(C)c4ccc(F)cc4C(=O)N3c3ccccc3O)s2)cs1 (stereo not shown) [Compound 2] | 0.02 µM | 8,947 | 0.00361 µM | 0.0142 µM | 21,000 | < 0.001 µM | 1,880 | 0.02 µM | 32.3 µM | 21 µM | 37.6 µM | – | –
3 | Cc1nc(-c2ccc(C3N(C)c4ccc(F)cc4C(=O)N3c3cccc(O)c3)s2)cs1 (stereo not shown) [Compound 3] | 0.055 µM | – | – | – | – | – | – | – | – | – | – | – | –
4 | Cc1nc(-c2ccc(C3N(C)c4ccc(F)cc4C(=O)N3c3cccc(O)c3O)s2)cs1 (stereo not shown) [Compound 7] | 0.041 µM | – | – | – | – | – | – | – | – | – | – | – | –
5 | Cc1nc(-c2ccc(C3N(C)c4ccc(F)cc4C(=O)N3c3ccccc3N)s2)cs1 (stereo not shown) [Compound 1] | 0.0142 µM | 47,619 | 0.00105 µM | 0.00144 µM | 21,500 | < 0.001 µM | – | – | > 50 µM | 21.5 µM | > 50 µM | 5,181 | 7.46 µM
6 | Cc1nc(-c2ccc(C3N(C)c4ccc(F)cc4C(=O)N3c3ccccc3S(N)(=O)=O)s2)cs1 (stereo not shown) [Compound 5] | 0.035 µM | – | – | – | – | – | – | – | – | – | – | – | –
7 | Cc1nc(-c2ccc(C3N(C)c4ccc(F)cc4C(=O)N3c3ccccc3)s2)cs1 (stereo not shown) [Retro-2.1] | 0.1 µM | 1,323 | 0.0378 µM | 0.0745 µM | 4,310 | 0.0116 µM | 309 | 0.162 µM | > 50 µM | > 50 µM | > 50 µM | 45 | 3.35 µM
8 | Cc1nc(-c2ccc(C3N(C)c4ccc(F)cc4C(=O)N3c3ccc(O)cc3)s2)cs1 (stereo not shown) [Compound 6] | 0.483 µM | 32 | 0.628 µM | 5.8 µM | 59 | 0.281 µM | 12 | 2.2 µM | 20.4 µM | 16.7 µM | 25.6 µM | 2 | 12.9 µM
